The record followed here is US12139520B2 (priority 2020, dated 2024).

The nature of series [1]: Physical stability of peptide analogues (Thioflavin T fibrillation). It counts as physicochemical. Particulars: maximum ThT signal normalized between hAMY maximum and buffer background; 40° C., shaking, four days; pH 7 per table title. The essentials:
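Maximum ThT emission at 480 nm, after LOESS smoothing, is given as percent of the span from buffer background to hAMY. Conditions: 50 mM buffer at pH 4 or 7, 4 μM dye, 40 °C, repeated shaking, readings every 10 min for four days.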

In series [2] the target is hAM1 receptor (Homo sapiens, UniProt O60895+Q16602). Nature of the series: cAMP assay for in vitro receptor activation, hAM1-R. It counts as cell-based. Particulars: cAMP assay, hAM1 receptor; read-out: hAM1R EC50. In outline:
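Monoclonal stable hAM1-overexpressing cells, thawed from frozen stock; 8000 cells/well in DPBS + 0.05% casein + 0.5 mM IBMX; read-out cAMP.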
A general note: Cyclic AMP is a second messenger, typically raised through Gs and lowered through Gi signalling.

The target of series [3] is T1, hAMY3 receptor (Homo sapiens, UniProt O60896+P30988).
T1 sequence (P30988 25-474): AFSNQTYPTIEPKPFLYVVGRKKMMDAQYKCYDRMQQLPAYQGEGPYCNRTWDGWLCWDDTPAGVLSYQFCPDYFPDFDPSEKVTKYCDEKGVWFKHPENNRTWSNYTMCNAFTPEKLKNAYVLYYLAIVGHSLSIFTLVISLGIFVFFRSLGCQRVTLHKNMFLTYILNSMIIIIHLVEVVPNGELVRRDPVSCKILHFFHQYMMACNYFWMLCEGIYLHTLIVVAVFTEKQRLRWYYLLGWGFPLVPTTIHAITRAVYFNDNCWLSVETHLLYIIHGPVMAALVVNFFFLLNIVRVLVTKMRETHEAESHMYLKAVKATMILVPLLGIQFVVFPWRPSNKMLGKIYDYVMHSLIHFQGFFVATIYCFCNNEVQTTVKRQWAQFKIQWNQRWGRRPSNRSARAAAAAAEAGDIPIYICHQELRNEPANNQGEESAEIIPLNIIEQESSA
T1 sequence (O60896 24-148 partner): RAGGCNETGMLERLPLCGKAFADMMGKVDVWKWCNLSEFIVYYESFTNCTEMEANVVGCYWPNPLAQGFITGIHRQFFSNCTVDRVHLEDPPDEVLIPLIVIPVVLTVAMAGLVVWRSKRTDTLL
The experiment in a line: cAMP assay for in vitro receptor activation, hAMY3-R. It counts as cell-based. Particulars: cAMP assay, hAMY3 receptor; read-out: hAMY3R EC50. The essentials:
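Read-out is TR-FRET cAMP signal, recorded one hour after reagent addition, following 30 min room-temperature stimulation of stable hAMY3 cells with graded compound doses in casein/IBMX (0.5 mM) buffer.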

Bridge positions count the residues as written; N and C are the ends. Square brackets hold non-standard residues; d marks the D form. Peptide text beside a SMILES is read from it. Hyp = O=C(O)[C@@H]1C[C@@H](O)CN1; Cit = NC(=O)NCCC[C@H](N)C(=O)O

Sequence of hAM1 receptor (Q16602 23-461): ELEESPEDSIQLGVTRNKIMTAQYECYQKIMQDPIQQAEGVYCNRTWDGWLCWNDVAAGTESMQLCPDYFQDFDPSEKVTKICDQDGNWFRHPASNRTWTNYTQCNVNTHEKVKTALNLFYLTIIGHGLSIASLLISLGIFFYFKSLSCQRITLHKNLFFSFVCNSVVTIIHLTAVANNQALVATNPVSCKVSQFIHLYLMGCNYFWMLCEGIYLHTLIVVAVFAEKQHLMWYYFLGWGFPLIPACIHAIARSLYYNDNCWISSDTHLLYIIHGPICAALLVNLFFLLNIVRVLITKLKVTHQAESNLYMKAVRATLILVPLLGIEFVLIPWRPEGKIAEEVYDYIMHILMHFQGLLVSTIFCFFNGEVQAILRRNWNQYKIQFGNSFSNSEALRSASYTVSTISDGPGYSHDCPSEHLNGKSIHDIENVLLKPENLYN
Sequence of hAM1 receptor (O60895 43-175 partner): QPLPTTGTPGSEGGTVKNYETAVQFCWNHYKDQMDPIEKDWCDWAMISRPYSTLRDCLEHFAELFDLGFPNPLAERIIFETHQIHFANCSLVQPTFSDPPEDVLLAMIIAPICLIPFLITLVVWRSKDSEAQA

One may read the EC50 as the concentration giving half of the maximal effect. Regarding `CC[C@H](C)[C@H](NC(=O)[C@H](CCC(N)=O)NC(=O)[C@H](Cc1c[nH]cn1)NC(=O)[C@H](C)NC(=O)[C@H](CC(C)C)NC(=O)[C@H](Cc1c[nH]c2ccccc12)NC(=O)[C@H](CCC(N)=O)NC(=O)[C@@H](NC(=O)[C@@H](NC(=O)[C@@H]1CSSC[C@H](NC(=O)[C@@H](N)CCCCN)C(=O)N[C@@H](CC(N)=O)C(=O)N[C@@H]([C@@H](C)O)C(=O)N[C@@H](C)C(=O)N[C@@H]([C@@H](C)O)C(=O)N1)[C@@H](C)O)C(C)C)C(=O)N[C@@H](Cc1ccc(O)cc1)C(=O)N[C@@H](CCC(N)=O)C(=O)N[C@@H](Cc1ccccc1)C(=O)N[C@H](C(=O)N[C@@H](CC(=O)O)C(=O)N[C@@H](CCCCN)C(=O)N[C@@H](CC(=O)O)C(=O)N[C@@H](CCCCN)C(=O)N[C@@H](CC(=O)O)C(=O)N[C@@H](CC(N)=O)C(=O)N[C@H](C(=O)N[C@@H](C)C(=O)N1CCC[C@H]1C(=O)N[C@@H](CCCNC(=N)N)C(=O)N[C@H](C(=O)N[C@@H](CCC(=O)O)C(=O)N[C@H](C(=O)NCC(=O)N[C@@H](CO)C(=O)N[C@@H](CC(N)=O)C(=O)NCC(=O)N[C@@H](Cc1ccc(O)cc1)C(N)=O)C(C)C)[C@@H](C)O)C(C)C)[C@@H](C)O` [compound 334] (H-KCNTATCTVQWLAHQIYQFTDKDKDNVAPRTEVGSNGY-NH2; disulfide 2-7), the “Max ThT signal (%)” value in series [1] was 10.150%. Also, the concentration giving a half-maximal response (EC50) in series [2] was over 5000 nM; in series [3] it was 0.013 nM.

As to `CC[C@H](C)[C@H](NC(=O)[C@H](CCC(N)=O)NC(=O)[C@H](Cc1c[nH]cn1)NC(=O)[C@H](C)NC(=O)[C@H](CC(C)C)NC(=O)[C@H](CCCNC(N)=O)NC(=O)[C@H](CCC(N)=O)NC(=O)[C@@H](NC(=O)[C@@H](NC(=O)[C@@H]1CSSC[C@H](NC(=O)[C@@H](N)CCCCN)C(=O)N[C@@H](CC(N)=O)C(=O)N[C@@H]([C@@H](C)O)C(=O)N[C@@H](C)C(=O)N[C@@H]([C@@H](C)O)C(=O)N1)[C@@H](C)O)C(C)C)C(=O)N[C@@H](Cc1ccc(O)cc1)C(=O)N[C@@H](CCC(N)=O)C(=O)N[C@@H](C)C(=O)N[C@H](C(=O)N[C@@H](CC(=O)O)C(=O)N[C@@H](CCCCN)C(=O)N[C@@H](CC(=O)O)C(=O)N[C@@H](CCCCN)C(=O)N[C@@H](CC(=O)O)C(=O)N[C@@H](CC(N)=O)C(=O)N[C@H](C(=O)N[C@@H](C)C(=O)N1CCC[C@H]1C(=O)N1CCC[C@H]1C(=O)N[C@H](C(=O)N[C@@H](CC(N)=O)C(=O)N[C@H](C(=O)NCC(=O)N[C@@H](CO)C(=O)N[C@@H](CC(N)=O)C(=O)NCC(=O)N1C[C@H](O)C[C@H]1C(N)=O)C(C)C)[C@@H](C)O)C(C)C)[C@@H](C)O` [compound 276] (H-KCNTATCTVQ[Cit]LAHQIYQATDKDKDNVAPPTNVGSNG[Hyp]-NH2; disulfide 2-7; N-terminus assumed), the “Max ThT signal (%)” value in series [1] was 8.950%. In addition, the EC50 in series [2] is over 5000 nM; in series [3] it was 0.056 nM.

Take `CC[C@H](C)[C@H](NC(=O)[C@H](CCC(N)=O)NC(=O)[C@H](Cc1c[nH]cn1)NC(=O)[C@H](C)NC(=O)[C@H](CC(C)C)NC(=O)[C@H](CCCNC(=N)N)NC(=O)[C@H](CCC(N)=O)NC(=O)[C@@H](NC(=O)[C@@H](NC(=O)[C@@H]1CSSC[C@H](NC(=O)CN)C(=O)N[C@@H](CCCNC(=N)N)C(=O)N[C@@H]([C@@H](C)O)C(=O)NCC(=O)N[C@@H]([C@@H](C)O)C(=O)N1)[C@@H](C)O)C(C)C)C(=O)N[C@@H](Cc1ccc(O)cc1)C(=O)N[C@@H](CCC(N)=O)C(=O)N[C@@H](Cc1ccccc1)C(=O)N[C@H](C(=O)N[C@@H](CC(=O)O)C(=O)N[C@@H](CCCCN)C(=O)N[C@@H](Cc1ccccc1)C(=O)N[C@@H](CCCCN)C(=O)N[C@@H](CC(=O)O)C(=O)N[C@@H](CC(N)=O)C(=O)N[C@H](C(=O)N[C@@H](C)C(=O)N1CCC[C@H]1C(=O)N[C@@H](CCCNC(=N)N)C(=O)N[C@@H](CO)C(=O)N[C@@H](CCCCN)C(=O)N[C@H](C(=O)N[C@@H](CO)C(=O)N1CCC[C@H]1C(=O)N[C@@H](CCC(N)=O)C(=O)N[C@@H](Cc1ccc(O)cc1)C(=O)N1C[C@H](O)C[C@H]1C(N)=O)[C@@H](C)CC)C(C)C)[C@@H](C)O` [compound 186] (H-GCRTGTCTVQRLAHQIYQFTDKFKDNVAPRSKISPQY[Hyp]-NH2; disulfide 2-7; N-terminus assumed): the “Max ThT signal (%)” value in series [1] was 0.600%. Moreover, the values for the EC50 in series [2] and in series [3] were over 5000 nM and 0.091 nM, respectively.

As for `CC[C@H](C)[C@H](NC(=O)[C@H](CCC(N)=O)NC(=O)[C@H](Cc1c[nH]cn1)NC(=O)[C@H](C)NC(=O)[C@H](CC(C)C)NC(=O)[C@H](CCCNC(=N)N)NC(=O)[C@H](CCC(N)=O)NC(=O)[C@@H](NC(=O)[C@@H](NC(=O)[C@@H]1CSSC[C@H](NC(=O)[C@@H](N)CCCCN)C(=O)N[C@@H](CC(N)=O)C(=O)N[C@@H]([C@@H](C)O)C(=O)N[C@@H](C)C(=O)N[C@@H]([C@@H](C)O)C(=O)N1)[C@@H](C)O)C(C)C)C(=O)N[C@@H](Cc1ccc(O)cc1)C(=O)N[C@@H](CCC(N)=O)C(=O)N[C@@H](Cc1ccccc1)C(=O)N[C@H](C(=O)N[C@@H](CC(=O)O)C(=O)N[C@@H](C)C(=O)N[C@@H](CC(=O)O)C(=O)N[C@@H](CCCCN)C(=O)N[C@@H](CC(=O)O)C(=O)N[C@@H](CC(N)=O)C(=O)N[C@H](C(=O)N[C@@H](C)C(=O)N1CCC[C@H]1C(=O)N1CCC[C@H]1C(=O)N[C@H](C(=O)N[C@@H](CC(N)=O)C(=O)N[C@H](C(=O)NCC(=O)N[C@@H](CO)C(=O)N[C@@H](CC(N)=O)C(=O)NCC(=O)N1C[C@H](O)C[C@H]1C(N)=O)C(C)C)[C@@H](C)O)C(C)C)[C@@H](C)O` [compound 64] (H-KCNTATCTVQRLAHQIYQFTDADKDNVAPPTNVGSNG[Hyp]-NH2; disulfide 2-7), the “Max ThT signal (%)” value in series [1] is 2.700%. Moreover, the figures for the EC50 in series [2] and in series [3] were over 5000 nM and 0.012 nM, respectively.

Consider `CC[C@H](C)[C@H](NC(=O)[C@H](CCC(N)=O)NC(=O)[C@H](Cc1c[nH]cn1)NC(=O)[C@H](C)NC(=O)[C@H](CC(C)C)NC(=O)[C@H](CCCNC(=N)N)NC(=O)[C@H](CCC(N)=O)NC(=O)[C@@H](NC(=O)[C@@H](NC(=O)[C@@H]1CSSC[C@H](NC(=O)[C@@H](N)CCCCN)C(=O)N[C@@H](CC(N)=O)C(=O)N[C@@H]([C@@H](C)O)C(=O)N[C@@H](C)C(=O)N[C@@H]([C@@H](C)O)C(=O)N1)[C@@H](C)O)C(C)C)C(=O)N[C@@H](Cc1ccc(O)cc1)C(=O)N[C@@H](CCC(N)=O)C(=O)N[C@@H](Cc1ccccc1)C(=O)N[C@@H](CC(=O)O)C(=O)N[C@@H](CCCCN)C(=O)N[C@@H](CC(=O)O)C(=O)N[C@@H](CCCCN)C(=O)N[C@@H](CC(=O)O)C(=O)N[C@@H](CC(N)=O)C(=O)N[C@H](C(=O)N[C@@H](C)C(=O)N1CCC[C@H]1C(=O)N1CCC[C@H]1C(=O)N[C@H](C(=O)N[C@@H](CC(N)=O)C(=O)N[C@H](C(=O)NCC(=O)N[C@@H](CO)C(=O)N[C@@H](CC(N)=O)C(=O)NCC(=O)N1C[C@H](O)C[C@H]1C(N)=O)C(C)C)[C@@H](C)O)C(C)C` [compound 65] (H-KCNTATCTVQRLAHQIYQFDKDKDNVAPPTNVGSNG[Hyp]-NH2; disulfide 2-7; N-terminus assumed), for which the “Max ThT signal (%)” value in series [1] was 1.000%. The values for the half-maximal effective concentration (EC50) in series [2] and in series [3] were over 5000 nM and 0.012 nM, respectively.

Consider `CC[C@H](C)[C@H](NC(=O)[C@H](CCC(N)=O)NC(=O)[C@H](Cc1c[nH]cn1)NC(=O)[C@H](C)NC(=O)[C@H](CC(C)C)NC(=O)[C@H](CCCNC(N)=O)NC(=O)[C@H](CCC(N)=O)NC(=O)[C@@H](NC(=O)[C@@H](NC(=O)[C@@H]1CSSC[C@H](NC(=O)[C@@H](N)CCCCN)C(=O)N[C@@H](CC(N)=O)C(=O)N[C@@H]([C@@H](C)O)C(=O)N[C@@H](C)C(=O)N[C@@H]([C@@H](C)O)C(=O)N1)[C@@H](C)O)C(C)C)C(=O)N[C@@H](Cc1ccc(O)cc1)C(=O)N[C@@H](CCC(N)=O)C(=O)N[C@@H](Cc1ccccc1)C(=O)N[C@H](C(=O)N[C@@H](CC(=O)O)C(=O)N[C@@H](CCCCN)C(=O)N[C@@H](CC(=O)O)C(=O)N[C@@H](CCCCN)C(=O)N[C@@H](CC(=O)O)C(=O)N[C@@H](CC(N)=O)C(=O)N[C@H](C(=O)N[C@@H](C)C(=O)N1CCC[C@H]1C(=O)N[C@@H](CCCNC(=N)N)C(=O)N[C@H](C(=O)N[C@@H](CCC(=O)O)C(=O)N[C@H](C(=O)NCC(=O)N[C@@H](CO)C(=O)N[C@@H](CC(N)=O)C(=O)NCC(=O)N[C@@H](Cc1ccc(O)cc1)C(N)=O)C(C)C)[C@@H](C)O)C(C)C)[C@@H](C)O` [compound 272] (H-KCNTATCTVQ[Cit]LAHQIYQFTDKDKDNVAPRTEVGSNGY-NH2; disulfide 2-7; N-terminus assumed), for which, in series [1], the “Max ThT signal (%)” value was 16.750%. In addition, the figures for the EC50 in series [2] and in series [3] were over 5000 nM and 0.009 nM, respectively.
